Measured values: US10736923B2, “Methods and compositions for generating chondrocyte lineage cells and/or cartilage like tissue” (UNIVERSITY HEALTH NETWORK, priority 2013, dated 2020)

Assays:
Format in all cases: cell-based, human
[1] = system: primitive streak-like mesoderm population; assay: Paraxial mesoderm specification in monolayer culture, flow cytometry of cell surface markers; conditions: day 4 to day 6 with Dorsomorphin, bFGF, SB431542; read on day 15
Experimental: FIG. 2. Characterization of paraxial mesoderm derived from hPSCs. Flow cytometric analysis of day 5 mesoderm treated with no additional factors (0 DM, no FGF), FGF, 4 μM DM, or 4 μM DM+FGF. Day 5 profiles depict KDR and PDGFRa expression, a double-positive population (gated) indicates mesoderm that has cardiac potential (20). Treatment with FGF results in less PDGFRa expression on day 5. (B) Expression of cell surface markers CD73, CD105, and PDGFR-beta on mesoderm populations on day 15 of differentiation. […] Experimental cell treatments during day 4 to day 6 include the combination of Dorsomorphin, bFGF, TGFbeta inhibitor (SB431542) in the presence or absence of the wnt pathway inhibitor IWP2. Flow cytometric analyses of CD73 and CD105, on day 15 mesoderm populations derived as indicated. (D) Gene expression analyses of day 15 mesoderm populations derived in indicated factors. Nkx2.5 is a cardiac transcription factor, Meox1 and Nkx3.2 are paraxial mesoderm and somite transcription factors. (E) Micrographs depicting 1 day old micromasses and 1 week old micromasses derived from day 15 mesoderm populations as indicated. (F) Flow cytometric analysis of cardiac troponin T (cTnT) expression in 1 week old micromasses derived from day 15 mesoderms as indicated. […] To generate chondrocytes, it is essential to first specify this PS population to a paraxial mesoderm fate. Previous studies have shown that mesoderm populations that express cell surface markers often found on mesenchymal stem cells, CD73 and CD105, have chondrogenic potential (Hwang, Kim et al. 2006). The expression of these two cell surface markers, as well as the expression of transcription factors Meox1 and Nkx3.2 combined with the lack of expression of Nkx2.5 to monitor the emergence of a paraxial mesoderm population was used. Previous experiments in the mouse ESC model system have shown the importance of inhibiting the BMP signaling pathway in the context of FGF signaling to prevent the emergence of cardiac mesoderm and promote the development of paraxial mesoderm (Craft, Ahmed et al. 2013). […] Very few cells in untreated mesoderm conditions expressed CD73 and CD105 (7.46%, FIG. 2B). […] The changes in expression of these surface markers were accompanied by the upregulation of paraxial genes Meox1 and Nkx3.2 (FIG. 2C). […] Thus, in some cell lines, the efficiency of paraxial mesoderm specification may be improved in the presence of a Wnt pathway antagonist immediately following the PS mesoderm induction phase.

[2] = system: hPSC-derived articular chondrocytes; assay: Response of hPSC-derived articular-like cartilage to IL1β
Experimental: FIG. 9. hPSC-derived articular-like cartilage respond appropriately to the pro-inflammatory molecule IL1β. (A) The experimental plan is depicted. Articular cartilage tissues were derived from hPSCs for 10 weeks in the presence of TGFβ3. Cartilage tissues (micromasses) were treated for two weeks (from week 10-12) with TGFβ3 or IL1β (10 ng/ml), as indicated. […] Values represent copy number mRNA relative to TBP (n=7). Error bars indicate s.e.m. (K) Histological analysis of 12-week tissues after treatments as indicated. Metachromatic toluidine blue staining indicates proteoglycans.
Access to an unlimited supply of hPSC-derived articular-like cartilage provides an opportunity to establish platforms to analyze the effects of pro-inflammatory cytokines such as […] (IL1beta), known to play a role in the early stages of osteoarthritis (OA). […] These enzymes cleave proteins found in cartilage extracellular matrix (ECM), such as collagens and aggrecans, which leads to the degradation of cartilage tissue. Significant upregulation of MMP13 and ADAMTS4 was observed only in the absence of TGFbeta3. ADAMTS5 was induced with or without TGFbeta3 present.

[3] = system: hPSC-derived paraxial mesoderm; assay: Chondrocyte specification in micromass culture with TGFB3 or BMP4 (histology, scatter flow cytometry, qRT-PCR, immunostaining); conditions: for CILP2 expression / COL2A1 expression / PRG4 (lubricin) expression: 12 weeks of micromass culture, TGF agonist 10 ng/ml
From the text: FIG. 4. TGFB3 and BMP4 specify chondrocytes and cartilage-like tissues with articular cartilage and growth plate cartilage phenotypes. (A) Micrographs of 5 week old micromasses derived with TGFB3 or BMP4, 20× magnification. (B) Tissue histology (stained with toluidine blue) of 13 week cartilage tissues derived with TGFB3 or BMP4. […] (C) Flow cytometric analysis of forward and side cell scatter parameters of 3 week and 5 week old micromasses. Side scatter indicates cell granularity and forward cell scatter indicates cell size. (D) Comparison of hPSC-derived micromass tissues to fetal primary chondrocyte derived micromass tissues and the developing human fetal femur cartilage. Articular cartilage regions appear to have smaller cells in size compared to growth plate like regions, which contain cells which appear enlarged (hypertrophic). Cartilage tissues in micromass as well as in the fetal femur stain uniformly with the toluidine blue stain (images are pink/purple in color and indicate the presence of cartilage proteins). The BMP4-treated micromass tissues contain a large number of enlarged cells which is similar to the bottom panel of the fetal cartilage which represents a growth plate cartilage. TGFB3 treated micromass cultures contain fewer, if any, enlarged chondrocytes, and appear similar to the upper panel of the fetal cartilage which is the site of articular cartilage. (E) Micrograph using GDF5 instead of BMP4 to generate hypertrophic chondrocytes. (F) Histological analyses of cartilage tissues derived from hiPSCs stained with Toluidine blue after 12 weeks. (G,H) Immunohistochemical staining of hESC-derived cartilage tissues for type II Collagen (G, 8 week tissues), and lubricin (H, 12 week tissues).
FIG. 5. Gene expression analyses of chondrocyte specification in the presence of TGFB3 or BMP4 during stages 3 and 4 of differentiation respectively. General chondrocyte genes Sox9 (A) and collagen 2 (B), hypertrophic genes collagen 10 (C), Runx2 (D), osterix (E) and alkaline phosphatase (F), articular cartilage associated genes lubricin (G) and cartilage intermediate layer protein 2 (CILP2) (H), interzone-related (joint progenitor) genes GDF5 (I), ERG (J) and Wnt9a (K). Expression is copy number relative to TBP (n=3 to 8 biological replicates) and is compared to primary fetal chondrocytes (aged 16 to 19 weeks, n=4), primary healthy adult articular chondrocytes (n=2), and growth plate-like chondrocytes isolated from the iliac crest of an adult (n=1). T15 Mesoderm indicates day 15 hESC-derived paraxial mesoderm (DM+FGF-treated). Error bars indicate s.e.m.
FIG. 8. TGFβ1, TGFβ2, and TGFβ3 generated articular chondrocytes from hPSC-derived paraxial mesoderm. COL2A1, lubricin, and CILP2 gene expression after 12 weeks of micromass culture in the presence of TGF agonists as indicated (10 ng/ml). Values represent copy number mRNA relative to TBP. Error bars indicate s.e.m.
Previous studies have shown that TGFBeta/BMP signaling is required to generate chondrocyte progenitors from paraxial mesoderm. […] Following 10 days of TGFb3 treatment (day 25 total), cultures could be switched to media containing BMP4 or maintained in TGFb3 (stage 4) in order to specify subsets of chondrocytes (articular/non-hypertrophic or growth plate/hypertrophic). To determine the chondrocyte potential of the day 15 mesoderm populations, the cells were plated at high cell density in a 20 microliter volume on tissue culture treated Petri dishes for an hour (micromass) and then the ‘spot’ was submerged/covered with media. In our initial studies, the cells were ‘spotted’ in a media containing 2% fetal bovine serum. However, this short serum exposure can be omitted with no effects on cartilage formation at later stages, making this protocol optionally serum-free. After 2 to 3 days, serum-free media containing TGFb3 is added to the culture to generate chondrocyte progenitors. […]

[4] = IL1beta in presence of TGFbeta3
[5] = IL1β 10 ng/ml, week 10-12, absence of TGFb3
[6] = IL1β 10 ng/ml, week 10-12, absence of TGFbeta3

Cc1ccc2nc(NC(=O)CSc3nc4c(c(=O)n3-c3ccccc3)SCC4)sc2c1 [IWP2, N-(6-Methyl-2-benzothiazolyl)-2-[(3,4,6,7-tetrahydro-4-oxo-3-phenylthieno[3,2-d]pyrimidin-2-yl)thio]-acetamide, reference compound]
CD73 and CD105 expression with Wnt inhibition [1]: improve the efficiency of CD73 and CD105 expression

IL1beta: pro-inflammatory cytokine
CILP2 expression [2, 4]: downregulated | lubricin (PRG4) expression [2, 4]: downregulated | ADAMTS5 expression ([2]; IL1beta with TGFbeta3 present): induced | ACAN expression ([2]; IL1β 10 ng/ml, week 10-12): reduction | COL2A1 expression ([2]; IL1β 10 ng/ml, week 10-12): reduction | vascular endothelial growth factor (VEGF) expression ([2]; IL1β 10 ng/ml, week 10-12): increase | proteoglycans in the tissue (toluidine blue) ([2]; IL1β 10 ng/ml, week 10-12, 12-week tissues): noticeable loss | ADAMTS4 expression [2, 5]: upregulation | ADAMTS5 expression [2, 5]: upregulation | MMP2 expression [2, 5]: upregulation | MMP13 expression [2, 5]: upregulation | CILP2 expression [2, 6]: downregulated | lubricin (PRG4) expression [2, 6]: downregulated

TGFbeta1: TGFbeta agonist
CILP2 expression [3]: upregulated | COL2A1 expression [3]: upregulated | PRG4 (lubricin) expression [3]: upregulated

B1: GDF5: growth and differentiation factor 5, BMP4 agonist (protein, UniProt P43026 382-501, looked up)
Growth/differentiation factor …: APLATRQGKRPSKNLKARCSRKALHVNFKDMGWDDWIIAPLEYEAFHCEGLCEFPLRSHLEPTNHAVIQTLMNSMDPESTPPTCCVPTRLSPISILFIDSANNVVYKQYEDMVVESCGCR
tissue histology (toluidine blue), chondrocyte size ([3]; 13 week old tissues, GDF5 instead of BMP4): generates hypertrophic chondrocytes

B2: TGFbeta2: TGFbeta agonist (protein, UniProt P61812 303-414, looked up)
Transforming growth factor …: ALDAAYCFRNVQDNCCLRPLYIDFKRDLGWKWIHEPKGYNANFCAGACPYLWSSDTQHSRVLSLYNTINPEASASPCCVSQDLEPLTILYYIGKTPKIEQLSNMIVKSCKCS
CILP2 expression [3]: upregulated | COL2A1 expression [3]: upregulated | PRG4 (lubricin) expression [3]: upregulated
